System: Endogenous Huntingtin Protein
Assay: Endogenous Huntingtin Protein Assay (Meso Scale Discovery ELISA-based electrochemiluminescence)
Type: cell-based
Conditions: MSD electrochemiluminescence, Table 1
Method: Compounds of Formula (I) were tested using the Meso Scale Discovery (MSD) Assay provided in International Application No. PCT/US2016/066042, filed on Dec. 11, 2016 and claiming priority to United States Provisional Application U.S. 62/265,652 filed on Dec. 10, 2015, the entire contents of which are incorporated herein by reference.
The Endogenous Huntingtin Protein assay used in Example 1 was developed using the ELISA-based MSD electrochemiluminescence assay platform.
Endogenous Huntingtin Protein Assay
Meso Scale Discovery (MSD) 96-well or 384-well plates were coated overnight at 4° C. with MW1 (expanded polyglutamine) or MAB2166 monoclonal antibody (for capture) at a concentration of 1 μg/mL in PBS (30 μL per well). Plates were then washed three times with 300 μL wash buffer (0.05% Tween-20 in PBS) and blocked (100 μL blocking buffer; 5% BSA in PBS) for 4-5 hours at room temperature with rotational shaking and then washed three times with wash buffer.
Samples (25 μL) were transferred to the antibody-coated MSD plate and incubated overnight at 4° C. After removal of the lysates, the plate was washed three times with wash buffer, and 25 μL of #5656S (Cell signaling; rabbit monoclonal) secondary antibody (diluted to 0.25 μg/mL in 0.05% Tween-20 in blocking buffer) was added to each well and incubated with shaking for 1 Hour at room temperature. Following incubation with the secondary antibody, the wells were rinsed with wash buffer after which 25 μL of goat anti-rabbit SULFO TAG secondary detection antibody (required aspect of the MSD system) (diluted to 0.25 μg/mL in 0.05% Tween-20 in blocking buffer) was added to each well and incubated with shaking for 1 hour at room temperature. After rinsing three times with wash buffer, 150 μL of read buffer T with surfactant (MSD) were added to each empty well, and the plate was imaged on a SI 6000 imager (MSD) according to manufacturers' instructions provided for 96- or 384-well plates.

SMILES | IC50 [µM]
Cc1cn2nc(-c3cc(F)c4cc(C5CCNCC5)nnc4c3)cc(C#N)c2n1 [Compound 108, 6-[5-fluoro-3-(piperidin-4-yl)cinnolin-7-yl]-2-methylimidazo[1,2-b]pyridazine-8-carbonitrile] | ≤ 0.1
Cc1cn2nc(-c3cc(F)c4cc(C5CCNCC5)ncc4c3)cc(C)c2n1 [Compound 72, 7-(2,8-dimethylimidazo[1,2-b]pyridazin-6-yl)-5-fluoro-3-(piperidin-4-yl)isoquinoline] | ≤ 0.1
Cc1cn2cc(-c3cc4c(F)cc(C5CCNCC5)cc4nn3)cc(F)c2n1 [Compound 128, 5-fluoro-3-(8-fluoro-2-methylimidazo[1,2-a]pyridin-6-yl)-7-(piperidin-4-yl)cinnoline] | ≤ 0.1
Cc1cn2nc(-c3cc(F)c4cc(C5CC(C)N(CCO)C(C)C5)nnc4c3)cc(C)c2n1 (stereo not shown) [Compound 155, 2-{(25,65)-4-[7-(2,8-dimethylimidazo[1,2-b]pyridazin-6-yl)-5-fluorocinnolin-3-yl]-2,6-dimethylpiperidin-1-yl}ethan-1-ol] | ≤ 0.1
CCCN1CCC(c2cc3c(F)cc(-c4cc(C)c5nc(C)cn5n4)cc3nn2)CC1 [Compound 77, 7-(2,8-dimethylimidazo[1,2-b]pyridazin-6-yl)-5-fluoro-3-(l-propylpiperidin-4-yl)cinnoline] | ≤ 0.1
COc1cc(-c2cc(F)c3cc(C4CCNCC4)nnc3c2)nc2cn(C)nc12 [Compound 163, 5-fluoro-7-(7-methoxy-2-methyl-2H-pyrazolo[4,3-b]pyridin-5-yl)-3-(piperidin-4-yl)cinnoline] | ≤ 0.1
Cc1cn2cc(-c3nnc4cc(C5CCNCC5)cc(F)c4n3)cc(F)c2n1 [Compound 41, 5-fluoro-3-(8-fluoro-2-methylimidazo[1,2-a]pyridin-6-yl)-7-(piperidin-4-yl)-1,2,4-benzotriazine] | 0.1 to 0.5
Cc1cn2nc(-c3cc(F)c4nc(C5CCNCC5)nnc4c3)cc(C)c2n1 [Compound 46, 7-(2,8-dimethylimidazo[1,2-b]pyridazin-6-yl)-5-fluoro-3-(piperidin-4-yl)-1,2,4-benzotriazine] | ≤ 0.1
Cc1cn2nc(-c3cc(F)c4cc(N5CC6(CCNCC6)C5)nnc4c3)cc(C)c2n1 [Compound 221, 3-(2,7-diazaspiro[3.5]nonan-2-yl)-7-(2,8-dimethylimidazo[1,2-b]pyridazin-6-yl)-5-fluorocinnoline] | ≤ 0.1
Cc1cn2cc(-c3cc(F)c4cc(C5CCNCC5)nnc4c3)nc2c(C)n1 [Compound 116, 7-(6,8-dimethylimidazo[1,2-a]pyrazin-2-yl)-5-fluoro-3-(piperidin-4-yl)cinnoline] | 0.1 to 0.5
COc1cc(-c2cc(F)c3nc(C4CCNCC4)ccc3c2)nn2cc(C)nc12 [Compound 51, 8-fluoro-6-(8-methoxy-2-methylimidazo[1,2-b]pyridazin-6-yl)-2-(piperidin-4-yl)quinoline] | ≤ 0.1
CCN1CCC(c2cc3c(F)cc(-c4cc(OC)c5nc(C)cn5n4)cc3nn2)CC1 [Compound 111, 3-(1-ethylpiperidin-4-yl)-5-fluoro-7-(8-methoxy-2-methylimidazo[1,2-b]pyridazin-6-yl)cinnoline] | ≤ 0.1
CCN1[C@H](C)CC(c2cc3c(F)cc(-c4cc(C)c5nc(C)cn5n4)cc3nn2)C[C@H]1C (stereo partly drawn) [Compound 125, 7-(2,8-dimethylimidazo[1,2-b]pyridazin-6-yl)-3-[(2R,6R)-1-ethyl-2,6-dimethylpiperidin-4-yl]-5-fluorocinnoline] | ≤ 0.1
Cn1cc2cc(-c3ncc4cc(C5CCNCC5)ccc4n3)ccc2n1 [Compound 10, 2-(2-methyl-2H-indazol-5-yl)-6-(piperidin-4-yl)quinazoline] | 0.1 to 0.5
CCc1cc(-c2cc(F)c3cc(C4CCN(C)CC4)nnc3c2)nn2cc(C)nc12 [Compound 122, 7-(8-ethyl-2-methylimidazo[1,2-b]pyridazin-6-yl)-5-fluoro-3-(1-methylpiperidin-4-yl)cinnoline] | ≤ 0.1
Cc1cc2sc(-c3cc(F)c4cc(C5CCNCC5)nnc4c3)nc2c(C)n1 [Compound 149, 7-(4,6-dimethyl[1,3]thiazolo[4,5-c]pyridin-2-yl)-5-fluoro-3-(piperidin-4-yl)cinnoline] | ≤ 0.1
Cc1cc(-c2cc(F)c3cc(C4CCNCC4)nnc3c2)cc2cn(C)nc12 [Compound 73, 7-(2,7-dimethyl-2H-indazol-5-yl)-5-fluoro-3-(piperidin-4-yl)cinnoline] | ≤ 0.1

SMILES | IC50 [µM]
Cn1cc2cc(-c3ncc4cc(C5=CCNCC5)cc(F)c4n3)cc(F)c2n1 [Compound 165, 8-fluoro-2-(7-fluoro-2-methyl-2H-indazol-5-yl)-6-(1,2,3,6-tetrahydropyridin-4-yl)quinazoline] | ≤ 0.1
Cc1cn2cc(-c3cc(F)c4nc(C5CCNCC5)nnc4c3)cc(C)c2n1 [Compound 60, 7-(2,8-dimethylimidazo[1,2-a]pyridin-6-yl)-5-fluoro-3-(piperidin-4-yl)-1,2,4-benzotriazine] | 0.1 to 0.5
Cc1cc(-c2nnc3cc(C4CCNCC4)ccc3n2)cc2cn(C)nc12 [Compound 17, 3-(2,7-dimethyl-2H-indazol-5-yl)-7-(piperidin-4-yl)-1,2,4-benzotriazine] | ≤ 0.1
Cn1cc2cc(-c3ccc4cc(C5CCNCC5)cc(F)c4n3)cc(F)c2n1 [Compound 192, 8-fluoro-2-(7-fluoro-2-methyl-2H-indazol-5-yl)-6-(piperidin-4-yl)quinoline] | ≤ 0.1
Cc1cn2nc(-c3cc(F)c4cc(N5CC6CC5CN6C)nnc4c3)cc(C)c2n1 (stereo not shown) [Compound 209, 7-(2,8-dimethylimidazo[1,2-b]pyridazin-6-yl)-5-fluoro-3-(5-methyl-2,5-diazabicyclo[2.2.1]heptan-2-yl)cinnoline] | 0.1 to 0.5
Cn1nc2cc(-c3cc4c(F)cc(C5=CCNCC5)cc4nn3)cc(F)c2n1 [Compound 171, 5-fluoro-3-(7-fluoro-2-methyl-2H-benzotriazol-5-yl)-7-(1,2,3,6-tetrahydropyridin-4-yl)cinnoline] | ≤ 0.1
CCOc1cc(-c2cc(F)c3nc(C4CCNCC4)nnc3c2)nn2cc(C)nc12 [Compound 59, 7-(8-ethoxy-2-methylimidazo[1,2-b]pyridazin-6-yl)-5-fluoro-3-(piperidin-4-yl)-1,2,4-benzotriazine] | ≤ 0.1
CCN1CCC(c2cc3c(F)cc(-c4cc(F)c5nc(C)cn5c4)cc3nn2)CC1 [Compound 102, 3-(1-ethylpiperidin-4-yl)-5-fluoro-7-(8-fluoro-2-methylimidazo[1,2-a]pyridin-6-yl)cinnoline] | ≤ 0.1
COCCOc1cc(-c2cc(F)c3nc(C4CCNCC4)ccc3c2)nn2cc(C)nc12 [Compound 53, 8-fluoro-6-[8-(2-methoxyethoxy)-2-methylimidazo[1,2-b]pyridazin-6-yl]-2-(piperidin-4-yl)quinoline] | 0.1 to 0.5
CN(c1ccc2cc(-c3ccc4nn(C)cc4c3)ccc2n1)C1CC(C)(C)NC(C)(C)C1 [Compound 12, N-methyl-6-(2-methyl-2H-indazol-5-yl)-N-(2,2,6,6-tetramethylpiperidin-4-yl)quinolin-2-amine] | 0.5 to 1
Cc1cc2oc(-c3cc(F)c4cc(C5C[C@@H](C)N(C)[C@@H](C)C5)nnc4c3)nc2c(C)n1 (stereo partly drawn) [Compound 228, 7-(4,6-dimethyloxazolo[4,5-c]pyridin-2-yl)-5-fluoro-3-((2S,4R,6R)-1,2,6-trimethylpiperidin-4-yl)cinnoline] | 0.1 to 0.5
CCN1CCC(c2cc3c(F)cc(-c4nc5cc(C)nc(C)c5s4)cc3nn2)CC1 [Compound 197, 7-(4,6-dimethyl[1,3]thiazolo[5,4-c]pyridin-2-yl)-3-(1-ethylpiperidin-4-yl)-5-fluorocinnoline] | ≤ 0.1
Cn1cc2cc(-c3cc(F)c4nc(C5CCNCC5)ncc4c3)cc(C#N)c2n1 [Compound 35, 5-[8-fluoro-2-(piperidin-4-yl)quinazolin-6-yl]-2-methyl-2H-indazole-7-carbonitrile] | ≤ 0.1
Cc1cn2nc(-c3cc(F)c4cc(C5C[C@@H](C)N(C)[C@@H](C)C5)nnc4c3)cc(C)c2n1 (stereo partly shown) [Compound 161] | ≤ 0.1
CCN1CCC(c2cc3c(F)cc(-c4cc(OC)c5nn(C)cc5n4)cc3nn2)CC1 [Compound 173, 3-(1-ethylpiperidin-4-yl)-5-fluoro-7-(7-methoxy-2-methyl-2H-pyrazolo[4,3-b]pyridin-5-yl)cinnoline] | ≤ 0.1
Cc1cn2cc(-c3nnc4cc(C5CCNCC5)ccc4n3)cc2c(C)n1 [Compound 28, 3-(1,3-dimethylpyrrolo[1,2-a]pyrazin-7-yl)-7-(piperidin-4-yl)-1,2,4-benzotriazine] | 1 to 3
Cc1cn2nc(-c3cc(F)c4cc(C5C[C@@H](C)N(C)[C@H](C)C5)nnc4c3)cc(C)c2n1 (stereo partly drawn) [Compound 124, 7-(2,8-dimethylimidazo[1,2-b]pyridazin-6-yl)-5-fluoro-3-[(25,6S)-1,2,6-trimethylpiperidin-4-yl]cinnoline] | ≤ 0.1
